Results reported in US20160243021A1, “Collagen-Boosting Compositions And Methods” (ELC MANAGEMENT LLC, priority 2015, published 2016).

What was measured:
Assay type in all cases: cell-based, human
adult NHDFs [1] = assay: Collagen-boosting assay, Example 4 (PIP ELISA; Mitostime); details: 10 ng/ml; 3 days
Method: Mitostime was tested for its collagen-boosting efficacy in NHDFs. TGFβ, at 10 ng/ml, was run as a positive control. Adult NHDFs were seeded and grown to confluence in a 96 well plate prior to treatment with mitostime 0.075%, 0.15% and 0.3% (w/v). The plate was incubated for 3 days at 37° C./5% CO2. Supernatants were harvested and stored at −80° C. in siliconized tubes until the PIP ELISA was performed as outlined in Example 1. For this assay, supernatants were diluted 1:200. […] TGFβ increased collagen synthesis by 27% (p=0.0001).

adult NHDFs [2] = assay: Collagen-boosting assay, Example 4 (PIP ELISA; Mitostime in combination with Argireline); details: 10 ng/ml; 3 days
Method: Mitostime also was tested in combination with Argireline for efficacy in boosting collagen synthesis in NHDFs. TGFβ, at 10 ng/ml, was run as a positive control. Adult NHDFs were seeded and grown to confluence in a 96 well plate prior to treatment with Mitostime at 0.3%/Argireline peptide at 0.00005%; Mitostime at 0.15%/Argireline peptide at 0.000025%; and Mitostime at 0.075%/Argireline peptide at 0.0000125%. The plate was incubated for 3 days at 37° C./5% CO2. Supernatants were harvested and stored at −80° C. in siliconized tubes until the PIP ELISA was performed as outlined in Example 1. For this assay, supernatants were diluted 1:200. […] TGFβ increased collagen synthesis by 23%.

adult NHDFs [3] = assay: Collagen-boosting assay, Example 3 (PIP ELISA; Argireline); details: 3 days
Method: In this assay, Argireline was tested for its efficacy in boosting collagen synthesis in NHDFs. TGFβ was run as a positive control.
Adult NHDFs were seeded and grown to confluence in a 96 well plate prior to treatment with Argireline at concentrations of 0.001, 0.01, 0.1 and 1% (v/v) in media (negative control) or with 10 ng/ml TGFβ (positive control) in media.
The plate was incubated for 3 days at 37° C./5% CO2. Supernatants were harvested and stored at −80° C. in siliconized tubes until the PIP ELISA was performed, as described in Example 1. For this assay, supernatants were diluted 1:40.

adult NHDF cells = assay: Collagen-boosting assay, Example 5 (PIP ELISA; NXP-75); details: 10 ng/ml; 3 days
Method: In this assay, NXP-75 was tested for its efficacy in boosting collagen synthesis in NHDFs. TGFβ (10 ng/ml) was run as a positive control. Adult NHDF cells were seeded and grown to confluence in a 96 well flat bottom plate prior to treatment. NXP-75 powder was prepared at the following dilutions: 0.0001, 0.001, 0.01 and 0.1% (w/v) in media (negative control). The plate was incubated for 3 days at 37° C./5% CO2. Supernatants were harvested and stored at −80° C. in siliconized tubes until the PIP ELISA was performed. For this assay, supernatants were diluted 1:200. […] TGFβ enhanced collagen synthesis by 20% compared with media.

Row | Substance | increase in collagen synthesis compared with media (adult NHDFs [1]) [%] | increase in collagen synthesis (adult NHDFs [2]) [%] | increase in collagen levels (adult NHDFs [3]; 10 ng/ml) [%] | boost of collagen synthesis compared with media (adult NHDF cells) [%] | increase in collagen synthesis compared with media (adult NHDFs [3]; 0.01%) [%] | increase in collagen synthesis compared with media (adult NHDFs [3]; 0.1% (v/v)) [%]
1 | TGFβ | 27 | 23 | 147 | 20 | – | –
2 | acetyl hexapeptide-3 [Argireline] | – | – | – | – | 29 | 76
